For 23 molecules, EC50 and IC50 results are on record in patent publication US7932262B2 (Novartis AG, priority 2006, dated 2011).

One experiment deals with PC-3 cells. Put plainly: Cell Proliferation Assay (Cell Titer Glo), PC-3 cell line. Conditions: Homo sapiens, read-out: CPEC50 PC3. The experiment is classed as cell-based. The essentials:
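PC-3 cells, 1000 cells/well, left to adhere 3-5 h, then exposed for 3 days at 37° C to compounds as 1:3 serial dilutions from 500× DMSO stocks diluted in growth medium. Medium then replaced with fresh medium and viability read by Cell Titer Glo luminescence.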

The next experiment has as its target T1, PDK1 kinase (Homo sapiens, UniProt O15530).
T1 sequence (O15530 1-556): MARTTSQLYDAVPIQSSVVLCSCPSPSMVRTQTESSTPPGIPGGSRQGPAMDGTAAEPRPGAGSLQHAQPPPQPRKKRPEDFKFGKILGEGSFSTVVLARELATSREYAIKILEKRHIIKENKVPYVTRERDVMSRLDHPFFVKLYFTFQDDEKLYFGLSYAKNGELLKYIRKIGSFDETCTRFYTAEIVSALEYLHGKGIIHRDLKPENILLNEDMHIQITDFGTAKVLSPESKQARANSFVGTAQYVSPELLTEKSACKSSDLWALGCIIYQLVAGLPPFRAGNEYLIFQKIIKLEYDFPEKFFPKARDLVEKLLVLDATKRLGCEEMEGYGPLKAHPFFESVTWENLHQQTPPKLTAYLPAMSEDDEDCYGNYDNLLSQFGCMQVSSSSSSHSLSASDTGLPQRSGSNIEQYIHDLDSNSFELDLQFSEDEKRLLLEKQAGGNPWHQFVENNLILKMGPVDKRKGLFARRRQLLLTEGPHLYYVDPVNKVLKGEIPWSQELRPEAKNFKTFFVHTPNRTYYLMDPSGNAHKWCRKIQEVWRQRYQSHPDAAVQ
Put plainly: PDK1 Kinase Alpha Screen Assay. It counts as biochemical. Conditions: read-out: PDK1 IC50. The essentials: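 PDK1 phosphorylated 50 nM biotinylated PDK1-4 peptide with 10 uM ATP in Tris pH 7.5, 10 mM MgCl2, 2 mM DTT, 2.5% DMSO for 3-18 hours. After EDTA stop, phosphopeptide was detected by AlphaScreen using phospho-(Ser/Thr) PKA substrate antibody with protein A/streptavidin beads, read after overnight incubation.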

Another experiment deals with A2780 cells. Put plainly: Cell Proliferation Assay (Cell Titer Glo), A2780. It counts as cell-based. Particulars: Homo sapiens, read-out: CPEC50 A2780. The essentials:
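Cells seeded at 1000/well, allowed to adhere 3-5 h, then exposed to DMSO-dissolved compounds for 3 days at 37° C., 5% CO2. Medium replaced before Cell Titer Glo addition; luminescence read after 10 min.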

Where [1] appears, read: PC-3, Cell Proliferation Assay, PC3.
[2] abbreviates: Cell Proliferation Assay, A2780.
Setting [3] is: PC-3, cell proliferation, PC3 cells.
The mark [4] stands for this setting: cell proliferation, A2780 cells.

Where two headings read alike, the source gives them in different places. Some results are limits rather than exact numbers.

What is called IC50 is the concentration that inhibits the measured activity by half. Consider `C#Cc1cc2cnc(Nc3ccc(N4CCOCC4)cc3)nc2cc1OC1CCNCC1` [Compound 646, 6-Ethynyl-N-(4-morpholinophenyl)-7-(piperidin-4-yloxy)quinazolin-2-amine], for which the EC50 in the experiment on PC-3 cells (setting [1]) and with A2780 cells (setting [2]) was under 5 µM throughout. Also, the IC50 on PDK1 kinase (PDK1 Kinase Alpha Screen Assay) is under 5 µM.

With `Cc1cc2cnc(Nc3ccc(N4CCOCC4)cc3)nc2cc1OC1CCNCC1` [Compound 647, 6-methyl-N-(4-morpholinophenyl)-7-(piperidin-4-yloxy)quinazolin-2-amine], the EC50 with PC-3 cells (setting [1]) and with A2780 cells (setting [2]) was under 5 µM each time. The half-maximal inhibitory concentration (IC50) at PDK1 kinase (PDK1 Kinase Alpha Screen Assay) was under 5 µM.

Take `Cc1cc2cnc(Nc3ccc(C(=O)N4CCOCC4)cc3)nc2cc1OC1CCNCC1` [Compound 648, (4-(6-methyl-7-(piperidin-4-yloxy)quinazolin-2-ylamino)phenyl)(morpholino)methanone]: the EC50 in the experiment on PC-3 cells (setting [1]) and in the experiment with A2780 cells (setting [2]) was under 5 µM throughout. Also, on PDK1 kinase (PDK1 Kinase Alpha Screen Assay), the 50% inhibitory concentration (IC50) was under 5 µM.

As to `O=C(c1ccc(Nc2ncc3cc(-c4nccs4)c(OC4CCNCC4)cc3n2)cc1)N1CCOCC1` [Compound 649, morpholino(4-(7-(piperidin-4-yloxy)-6-(thiazol-2-yl)quinazolin-2-ylamino)phenyl)methanone], the EC50 in the experiment with PC-3 cells (setting [1]) and in the experiment with A2780 cells (setting [2]) was under 5 µM in each case. On PDK1 kinase (PDK1 Kinase Alpha Screen Assay), the IC50 is under 5 µM.

As for `CN1CCC(Oc2ccc3cnc(Nc4ccc(S(=O)(=O)N5CCOCC5)cc4)nc3c2)CC1` [Compound 869, 7-(1-methylpiperidin-4-yloxy)-N-(4-(morpholinosulfonyl)phenyl)quinazolin-2-amine], the EC50 in the experiment on PC-3 cells (setting [3]) and in the experiment on A2780 cells (setting [4]) was under 5 µM in each case. Moreover, on PDK1 kinase (PDK1 Kinase Alpha Screen Assay), the IC50 was under 5 µM.

As for `NS(=O)(=O)c1ccc(Nc2ncc3cc(F)cc(-c4ccc5c(c4)CCNC5=O)c3n2)cc1` [Compound 884, 4-(6-fluoro-8-(1-oxo-1,2,3,4-tetrahydroisoquinolin-6-yl)quinazolin-2-ylamino)benzenesulfonamide], the EC50 in the experiment with PC-3 cells (setting [3]) and in the experiment on A2780 cells (setting [4]) was under 5 µM throughout. The IC50 at PDK1 kinase (PDK1 Kinase Alpha Screen Assay) was under 5 µM.

Turning to `Nc1ccc(-c2cc(F)cc3cnc(Nc4ccc(S(N)(=O)=O)cc4)nc23)cn1` [Compound 885, 4-(8-(6-aminopyridin-3-yl)-6-fluoroquinazolin-2-ylamino)benzenesulfonamide], the EC50 with PC-3 cells (setting [3]) and in the experiment with A2780 cells (setting [4]) was under 5 µM throughout. In addition, the concentration for half-maximal inhibition (IC50) on PDK1 kinase (PDK1 Kinase Alpha Screen Assay) was under 5 µM.

Take `CN1CCN(c2ccc(-c3cc(F)cc4cnc(Nc5ccc(S(N)(=O)=O)cc5)nc34)cn2)CC1` [Compound 888, 4-(6-fluoro-8-(6-(4-methylpiperazin-1-yl)pyridin-3-yl)quinazolin-2-ylamino)benzenesulfonamide]: the EC50 in the experiment with PC-3 cells (setting [3]) and in the experiment with A2780 cells (setting [4]) was under 5 µM throughout. Further, the 50% inhibitory concentration (IC50) on PDK1 kinase (PDK1 Kinase Alpha Screen Assay) is under 5 µM.

For `NS(=O)(=O)c1ccc(Nc2ncc3cc(F)cc(-c4ccc(NCCN5CCCC5)nc4)c3n2)cc1` [Compound 892, 4-(6-fluoro-8-(6-(2-(pyrroidin-1-yl)ethylamino)pyridin-3-yl)quinazolin-2-ylamino)benzenesulfonamide], the EC50 with PC-3 cells (setting [3]) and with A2780 cells (setting [4]) was under 5 µM in each case. Further, the IC50 at PDK1 kinase (PDK1 Kinase Alpha Screen Assay) is under 5 µM.

`COCCNc1ccc(-c2cc(F)cc3cnc(Nc4ccc(S(N)(=O)=O)cc4)nc23)cn1` [Compound 893, 4-(6-fluoro-8-(6-(2-methoxyethylamino)pyridin-3-yl)quinazolin-2-ylamino)benzenesulfonamide]: the EC50 in the experiment on PC-3 cells (setting [3]) and with A2780 cells (setting [4]) was under 5 µM each time. Besides, at PDK1 kinase (PDK1 Kinase Alpha Screen Assay), the IC50 is under 5 µM.

For `NS(=O)(=O)c1ccc(Nc2ncc3cc(F)cc(-c4ccc(N5CCOCC5)nc4)c3n2)cc1` [Compound 894, 4-(6-fluoro-8-(6-morpholinopyridin-3-yl)quinazolin-2-ylamino)benzenesulfonamide], the EC50 in the experiment on PC-3 cells (setting [3]) and with A2780 cells (setting [4]) was under 5 µM each time. At PDK1 kinase (PDK1 Kinase Alpha Screen Assay), the IC50 was under 5 µM.

As to `Cn1cc(-c2ccc3cnc(Nc4ccc(S(N)(=O)=O)cc4)nc3c2-c2ccccc2)cn1` [Compound 904, 4-(7-(1-methyl-1H-pyrazol-4-yl)-8-phenylquinazolin-2-ylamino)benzenesulfonamide], the EC50 in the experiment with PC-3 cells (setting [3]) and with A2780 cells (setting [4]) was under 5 µM each time. Moreover, the IC50 at PDK1 kinase (PDK1 Kinase Alpha Screen Assay) was under 5 µM.

Consider `Cn1cc(-c2ccc3cnc(Nc4ccc(S(N)(=O)=O)cc4)nc3c2-c2ccc(N)nc2)cn1` [Compound 905, 4-(8-(6-aminopyridin-3-yl)-7-(1-methyl-1H-pyrazol-4-yl)quinazolin-2-ylamino)benzenesulfonamide], for which the EC50 in the experiment on PC-3 cells (setting [3]) and in the experiment on A2780 cells (setting [4]) was under 5 µM each time. The half-maximal inhibitory concentration (IC50) at PDK1 kinase (PDK1 Kinase Alpha Screen Assay) is under 5 µM.

Consider `CN1CCN(C(=O)c2ccc(-c3c(-c4cnn(C)c4)ccc4cnc(Nc5ccc(S(N)(=O)=O)cc5)nc34)cc2)CC1` [Compound 906, 4-(7-(1-methyl-1H-pyrazol-4-yl)-8-(4-(4-methylpiperazine-1-carbonyl)phenyl)quinazolin-2-ylamino)benzenesulfonamide], for which the EC50 in the experiment on PC-3 cells (setting [3]) and in the experiment with A2780 cells (setting [4]) was under 5 µM throughout. Further, the IC50 on PDK1 kinase (PDK1 Kinase Alpha Screen Assay) was under 5 µM.

Take `Cn1cc(-c2ccc3cnc(Nc4ccc(S(N)(=O)=O)cc4)nc3c2-c2ccc(F)nc2)cn1` [Compound 907, 4-(8-(6-fluoropyridin-3-yl)-7-(1-methyl-1H-pyrazol-4-yl)quinazolin-2-ylamino)benzenesulfonamide]: the EC50 in the experiment with PC-3 cells (setting [3]) and in the experiment on A2780 cells (setting [4]) was under 5 µM in each case. In addition, on PDK1 kinase (PDK1 Kinase Alpha Screen Assay), the IC50 was under 5 µM.

For `COCCNc1ccc(-c2c(-c3cnn(C)c3)ccc3cnc(Nc4ccc(S(N)(=O)=O)cc4)nc23)cn1` [Compound 908, 4-(8-(6-(2-methoxyethylamino)pyridin-3-yl)-7-(1-methyl-1H-pyrazol-4-yl)quinazolin-2-ylamino)benzenesulfonamide], the EC50 in the experiment on PC-3 cells (setting [3]) and with A2780 cells (setting [4]) was under 5 µM in each case. Further, the IC50 on PDK1 kinase (PDK1 Kinase Alpha Screen Assay) was under 5 µM.

Regarding `Cn1cc(-c2ccc3cnc(Nc4ccc(S(N)(=O)=O)cc4)nc3c2-c2ccc(N3CCOCC3)nc2)cn1` [Compound 909, 4-(7-(1-methyl-1H-pyrazol-4-yl)-8-(6-morpholinopyridin-3-yl)quinazolin-2-ylamino)benzenesulfonamide], the EC50 in the experiment with PC-3 cells (setting [3]) and in the experiment on A2780 cells (setting [4]) was under 5 µM throughout. The IC50 at PDK1 kinase (PDK1 Kinase Alpha Screen Assay) is under 5 µM.

With `CN1CCN(c2ccc(-c3c(-c4cnn(C)c4)ccc4cnc(Nc5ccc(S(N)(=O)=O)cc5)nc34)cn2)CC1` [Compound 910, 4-(7-(1-methyl-1H-pyrazol-4-yl)-8-(6-(4-methylpiperazin-1-yl)pyridin-3-yl)quinazolin-2-ylamino)benzenesulfonamide], the EC50 in the experiment with PC-3 cells (setting [3]) and in the experiment with A2780 cells (setting [4]) was under 5 µM in each case. Moreover, the IC50 on PDK1 kinase (PDK1 Kinase Alpha Screen Assay) was under 5 µM.

With `NS(=O)(=O)c1ccc(Nc2ncc3ccc(-c4ccccc4)c(OC4CCNCC4)c3n2)cc1` [Compound 911, 4-(7-phenyl-8-(piperidin-4-yloxy)quinazolin-2-ylamino)benzenesulfonamide], the EC50 in the experiment with PC-3 cells (setting [3]) and in the experiment with A2780 cells (setting [4]) was under 5 µM in each case. In addition, the IC50 at PDK1 kinase (PDK1 Kinase Alpha Screen Assay) was under 5 µM.

As for `NS(=O)(=O)c1ccc(Nc2ncc3cc(F)cc(-c4ccc(N5CCS(=O)(=O)CC5)nc4)c3n2)cc1` [Compound 913], the EC50 in the experiment on PC-3 cells (setting [3]) and in the experiment on A2780 cells (setting [4]) was under 5 µM each time. Besides, on PDK1 kinase (PDK1 Kinase Alpha Screen Assay), the IC50 was under 5 µM.

On to `CC(C)Nc1ccc(-c2cc(F)cc3cnc(Nc4ccc(S(N)(=O)=O)cc4)nc23)cn1` [Compound 914, 4-(6-fluoro-8-(6-(isopropylamino)pyridin-3-yl)quinazolin-2-ylamino)benzenesulfonamide], for which the EC50 in the experiment on PC-3 cells (setting [3]) and in the experiment with A2780 cells (setting [4]) was under 5 µM throughout. For the same molecule, the half-maximal inhibitory concentration (IC50) on PDK1 kinase (PDK1 Kinase Alpha Screen Assay) was under 5 µM.

`CN1CCN(C(=O)c2ccc(-c3cc(F)cc4cnc(Nc5ccc(S(N)(=O)=O)cc5)nc34)cc2)CC1` [Compound 915, 4-(6-fluoro-8-(4-(4-methylpiperazine-1-carbonyl)phenyl)quinazolin-2-ylamino)benzenesulfonamide]: the EC50 is under 5 µM with PC-3 cells (PC-3, PC3 cells) and under 5 µM in the experiment on A2780 cells (A2780 cells). Also, the half-maximal inhibitory concentration (IC50) at PDK1 kinase was under 5 µM.

With `CC(C)N1CCN(Cc2cccc3cnc(Nc4ccc(S(N)(=O)=O)cc4)nc23)CC1` [Compound 925, 4-(8-((4-isopropylpiperazin-1-yl)methyl)quinazolin-2-ylamino)benzenesulfonamide], the EC50 with PC-3 cells (PC-3, PC3 cells) was 5 to 10 µM; with A2780 cells (A2780 cells) it was under 5 µM. Moreover, the IC50 on PDK1 kinase is under 5 µM.
